ChEMBL document CHEMBL6071128, “Chalcone-Monoterpene Derivatives from the Buds of Cleistocalyx operculatus and Their Potential as Protein Tyrosine Phosphatase 1B Inhibitors” (J Nat Prod, 2024)

Assays:
[1] = biological target: T1, Tyrosine-protein phosphatase non-receptor type 1 (Homo sapiens, UniProt P18031)
T1 sequence (P18031 whole entry): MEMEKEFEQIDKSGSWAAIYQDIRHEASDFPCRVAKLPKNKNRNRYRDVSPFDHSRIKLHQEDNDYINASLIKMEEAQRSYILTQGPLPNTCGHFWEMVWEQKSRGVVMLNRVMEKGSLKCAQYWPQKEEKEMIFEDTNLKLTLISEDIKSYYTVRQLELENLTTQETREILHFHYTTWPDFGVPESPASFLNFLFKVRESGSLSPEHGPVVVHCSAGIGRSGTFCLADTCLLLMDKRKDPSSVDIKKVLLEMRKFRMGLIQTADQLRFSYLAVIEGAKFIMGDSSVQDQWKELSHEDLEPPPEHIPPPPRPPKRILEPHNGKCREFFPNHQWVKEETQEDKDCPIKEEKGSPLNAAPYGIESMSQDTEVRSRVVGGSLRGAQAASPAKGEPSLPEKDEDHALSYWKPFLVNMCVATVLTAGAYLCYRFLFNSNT
Description: Binding affinity to human recombinant PTP1B (1 to 322 residues) extracted from Escherichia coli assessed as inhibition constant using p-nitrophenyl phosphate as substrate preincubated for 2 mins followed by substrate addition and measured after 15 mins by absorbance based analysis

[2] = biological target: T1, Tyrosine-protein phosphatase non-receptor type 1; remark: listed apart in the source
Description: Inhibition of human recombinant PTP1B (1 to 322 residues) extracted from Escherichia coli using p-nitrophenyl phosphate as substrate incubated for 30 mins by absorbance based analysis

| SMILES | Ki [1] [µM] | IC50 [2] [µM] |
| --- | --- | --- |
| CC1=C2O[C@]34OC(c5ccccc5)CC(O)=C3C(=O)C(C)(C)C(=O)[C@]4(C)CC2=C(O)C(C(=O)/C=C/c2ccccc2)C1=O (some centres not stated) | 5.2 | 1.5 |
| COc1c(C)c(O)c(C=O)c(O)c1C(=O)[C@@H]1CC(CCC=C(C)C)=CC[C@H]1c1ccccc1 | 3.4 | 1.4 |
| COc1c(C)c(O)c(C=O)c(O)c1C(=O)[C@H]1CC(CCC=C(C)C)=CC[C@@H]1c1ccccc1 | 5.9 | 1.1 |
| COc1c(C)c(O)c(C=O)c(O)c1C(=O)/C=C/c1ccccc1 | – | 3.9 |
